# Read-outs that look alike come from different tables or passages of the source.
# Experiments:
# I81A(3) BAK = assay: Liposome permeabilization assay: BH3 peptide activation of I81A(3) BAK receptor; format: biochemical, human; settings: 50 nM mutant BAK; Suppl. Fig. 4f
# Protocol: We performed liposome permeabilization assays as previously described[43]-[46]. […] We mixed the lipid film in ANTS/DPX solution by vortexing and sonication (~15 min) followed by extrusion through polycarbonate membrane of 2 μm pore size (Avanti Polar lipids) to generate homogenous large unilamellar vesicles (LUVs). We separated LUVs from free ANTS/DPX by S500 size exclusion chromatography and stored them at 4 °C in the dark. We prepared peptide and protein dilutions in 96-well black flat bottom plates (Costar) kept on ice. […] We quantified liposome permabilization by integrating area under curve (AUC) of normalized traces based on the Simpson's equation, and analyzed that data in Excel and GraphPad Prism. AUC measurements reflect the kinetic and extent of liposome permeabilization and provide quantitative means for comparison between different experimental conditions (e.g., BAK mutants with gross or partial variation in activity). Variability in permeabilization of different liposomes is common and our analyses compare among conditions investigated with the same liposomes. Although the absolute permeabilization values may differ, the trends for the same conditions are always very similar between different liposomes.
# Human BAK-∆TM-His6 (BAK) = target: T1, Human BAK-∆TM-His6 (BAK) (Homo sapiens, UniProt Q16611); assay: Liposome permeabilization assay (ANTS/DPX dye release from LUVs): activation of WT BAK by BH3 peptides;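 as to AUC for Experiment-2 (Mean): traces normalized between buffer minimum and 3% CHAPS maximum fluorescence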;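 as to AUC for Experiment-3 (Mean): traces normalized between buffer minimum and 3% CHAPS maximum fluorescence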; format: biochemical; set-up: AUC for Experiment-2 (Mean) / AUC for Experiment-3 (Mean) / AUC for Experiment-1 (Mean):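 traces normalized between buffer minimum and 3% CHAPS maximum fluorescence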; settings: for EC50: 50 nM BAK; for AUC for Experiment-1 (Mean) / AUC for Experiment-2 (Mean) / AUC for Experiment-3 (Mean): AUC 0-88 mins of liposome permeabilization; for AUC for Experiment-1 (Mean): Experiment-1, mean of N replicates; for AUC for Experiment-2 (Mean): Experiment-2, mean of N replicates; for AUC for Experiment-3 (Mean): Experiment-3, mean of N replicates; for peptide concentration at which ligands activate WT BAK / lowest dose at which permeabilization is observed: liposome permeabilization; for peptide concentration at which ligands activate WT BAK: Suppl. Figs. 3e, 4d, e; for lowest dose at which permeabilization is observed: robust across experiments; for activation of WT BAK in liposome permeabilization assays: BAK BH3 peptide ligands, 50 nM WT BAK receptor
# T1 construct: C-terminus truncated recombinant human BAK containing C-terminal 6× histidine tag (MEAS-BAK); made in house; host or cells: E. coli T7 Express pLac I/Y
# T1 sequence (Q16611 1-186 limits assumed): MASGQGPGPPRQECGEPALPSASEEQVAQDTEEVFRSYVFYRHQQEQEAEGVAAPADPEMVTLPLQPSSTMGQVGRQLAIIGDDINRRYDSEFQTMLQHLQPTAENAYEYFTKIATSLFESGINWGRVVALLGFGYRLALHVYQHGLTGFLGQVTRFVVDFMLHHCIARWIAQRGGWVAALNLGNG
Structure (SMILES),liposome permeabilization by 50 nM I81A(3) BAK receptor (I81A(3) BAK),"EC50 (Human BAK-∆TM-His6 (BAK); EC50 from AUC vs peptide dose, data in Supplementary Figure 7c, 37 °C, 90 min, read-out: Liposome permeabilization EC50) [µM]",AUC for Experiment-1 (Mean) (Human BAK-∆TM-His6 (BAK); 1 μM peptide + 50 nM BAK),AUC for Experiment-2 (Mean) (Human BAK-∆TM-His6 (BAK); 1 μM peptide + 50 nM BAK),AUC for Experiment-3 (Mean) (Human BAK-∆TM-His6 (BAK); 1 μM peptide + 50 nM BAK),AUC for Experiment-1 (Mean) (Human BAK-∆TM-His6 (BAK); 50 μM peptide + 50 nM BAK),AUC for Experiment-2 (Mean) (Human BAK-∆TM-His6 (BAK); 50 μM peptide + 50 nM BAK),AUC for Experiment-3 (Mean) (Human BAK-∆TM-His6 (BAK); 50 μM peptide + 50 nM BAK),peptide concentration at which ligands activate WT BAK (Human BAK-∆TM-His6 (BAK)),lowest dose at which permeabilization is observed (Human BAK-∆TM-His6 (BAK)) [µM],"EC50 (Human BAK-∆TM-His6 (BAK); EC50 from AUC vs peptide dose, data in Supplementary Figure 4b, 37 °C, 90 min, read-out: Liposome permeabilization EC50) [µM]","EC50 (Human BAK-∆TM-His6 (BAK); peer review file, read-out: EC50 analysis of liposome permeabilization (rebuttal, earlier manuscript version)) [µM]",activation of WT BAK in liposome permeabilization assays (Human BAK-∆TM-His6 (BAK)),activation of WT BAK in liposome permeabilization assays (Human BAK-∆TM-His6 (BAK); listed as WT BAK BH3 peptide)
"CC[C@H](C)[C@H](NC(=O)[C@H](CO)NC(=O)[C@H](CCCNC(=N)N)NC(=O)[C@H](CC(=O)O)NC(=O)[C@H](CCSC)NC(=O)[C@H](CO)NC(=O)[C@H](CC(=O)O)NC(=O)CNC(=O)[C@@H](NC(=O)[C@H](CCC(N)=O)NC(=O)[C@H](C)NC(=O)[C@H](CC(C)C)NC(=O)[C@H](Cc1c[nH]cn1)NC(=O)[C@H](CCCNC(=N)N)NC(=O)[C@H](C)NC(=O)[C@@H](NC(=O)[C@H](CC(N)=O)NC(=O)[C@H](CCCNC(=N)N)NC(=O)[C@@H](NC(=O)[C@@H](NC(=O)[C@H](CC(=O)O)NC(=O)[C@H](CCC(=O)O)NC(C)=O)[C@@H](C)CC)[C@@H](C)CC)[C@@H](C)CC)C(C)C)C(N)=O [WT BID BH3, reference compound]",neither peptide ligands could promote liposome permeabilization,0.059 ± 0.012,17.777,10.071,10.975,14.842,13.692,17.854,above 1 µM,1,,,,
CC[C@H](C)[C@H](NC(=O)[C@H](C)NC(=O)[C@H](CC(C)C)NC(=O)[C@H](CCC(N)=O)NC(=O)[C@H](CCCNC(=N)N)NC(=O)CNC(=O)[C@@H](NC(=O)[C@H](CCC(N)=O)NC(=O)CNC(=O)[C@H](CCSC)NC(=O)[C@@H](NC(=O)[C@H](CO)NC(=O)[C@H](CO)NC(C)=O)[C@@H](C)O)C(C)C)C(=O)N[C@H](C(=O)NCC(=O)N[C@@H](CC(=O)O)C(=O)N[C@@H](CC(=O)O)C(=O)N[C@H](C(=O)N[C@@H](CC(N)=O)C(=O)N[C@@H](CCCNC(=N)N)C(=O)N[C@@H](CCCNC(=N)N)C(=O)N[C@@H](Cc1ccc(O)cc1)C(N)=O)[C@@H](C)CC)[C@@H](C)CC [WT BAK BH3],neither peptide ligands could promote liposome permeabilization,,,,,,,,above 1 µM,0.1,0.0358 ± 0.0304,0.05 to 0.2,activates BAK in liposome permeabilization assays similarly to BID BH3,potently activate WT BAK

# Source: publication PMC8752837, “Structural basis of BAK activation in mitochondrial apoptosis initiation” (Nature Communications, 2022)
